Assay results: article PMC8057092, “Cytotoxic activity of standardized extracts, a fraction, and individual secondary metabolites from fenugreek seeds against SKOV-3, HeLa and MOLT-4 cell lines” (Pharmaceutical Biology, 2021)
Values after ≈ are worked out from the molar mass of the structure shown. “Also recorded” adds a separate entry of the source. Read-outs that look alike come from different tables or passages of the source.

Columns and labels:
Type in all cases: cell-based, human
HaCaT cells [1] = experiment: MTT assay, HaCaT keratinocytes; details: 24 h; for IC50: Homo sapiens, HaCaT, read-out: IC50 ± SD, HaCaT
Description: (§1) The human cervical (HeLa S3) and ovarian (SKOV-3) adenocarcinomas, acute human lymphoblastic leukaemia (MOLT-4) cell lines and human keratinocytes (HaCaT) were obtained from the American Type Culture Collection (ATCC, Manassas, VA, USA). […] All the media were supplemented with 10% (v/v) foetal bovine serum (FBS), 2 mM L-glutamine (except for McCoy’s 5 A), 100 units/mL of penicillin, 100 µg/mL of streptomycin (Sigma-Aldrich), and were kept at 37 °C in a humidified 5% CO2 incubator. The viability of all the cells was determined by 3-(4,5-dimethylthiazol-2-yl)-2,5-diphenyltetrazolium bromide (MTT) assay. […] The range of concentrations was selected experimentally to obtain symmetrical sigmoidal shape of dose-response curves generated by GraFit v. 7 (Erithacus Software, West Sussex, UK). […] Following treatment, the media with the extracts, fraction and compounds were removed and replaced with fresh media with MTT (0.5 mg/mL). After 3 h of incubation, the absorption of the formazan solution was measured at 570 nm with a plate reader (Epoch, BioTek, Winooski, VT, USA). The results are expressed as IC50 mean values (±SD, standard deviation) of at least two independent experiments, in six repetitions.

HeLa cells [2] = experiment: MTT assay, HeLa; details: for IC50: Homo sapiens, HeLa, read-out: IC50 ± SD, HeLa; for IC50 / IC50 ± SD, HeLa: 24 h; for Selectivity index (SI), HeLa: SI = IC50 HaCaT/IC50 HeLa, from MTT results
Description: as §1

SKOV-3 cells [3] = experiment: MTT assay, SKOV-3; details: for IC50: Homo sapiens, read-out: IC50 ± SD, SKOV-3; for Selectivity index (SI), SKOV-3: SI = IC50 HaCaT/IC50 SKOV-3, from MTT results
Description: as §1

HaCaT cells [4] = experiment: RTCA (xCELLigence) cell proliferation assay, HaCaT; details: 24 h; for IC50: Homo sapiens, HaCaT, read-out: IC50 ± SD, HaCaT
Description: (§2) The human cervical (HeLa S3) and ovarian (SKOV-3) adenocarcinomas, acute human lymphoblastic leukaemia (MOLT-4) cell lines and human keratinocytes (HaCaT) were obtained from the American Type Culture Collection (ATCC, Manassas, VA, USA). The HeLa and HaCaT cells were cultured in Dulbecco’s Modified Eagle’s Medium (DMEM), SKOV-3 and MOLT-4 cells were cultured in McCoy’s 5 A and RPMI 1640 Media, respectively. All the media were supplemented with 10% (v/v) foetal bovine serum (FBS), 2 mM L-glutamine (except for McCoy’s 5 A), 100 units/mL of penicillin, 100 µg/mL of streptomycin (Sigma-Aldrich), and were kept at 37 °C in a humidified 5% CO2 incubator.
(§3) The xCELLigence Real-Time Cell Analyzer Dual Plate (RTCA DP, ACEA Biosciences, San Diego, CA, USA) was used for monitoring of viability of adherent cells (HeLa, SKOV-3 and HaCaT) treated with the extracts (A, B), fraction C and sapogenins for 24 h. The cells were seeded at a density of 2 × 10^4 cells/well into E-plate 16 (ACEA Biosciences). When the cells entered log phase, the extracts, fraction and steroidal saponins were added in the final concentration range of 5.0–120.0 µg/mL, 5.0–100.0 µg/mL, and 1.0–50.0 µg/mL, respectively. The range of concentrations was selected experimentally to obtain symmetrical sigmoidal shape of dose-response curves generated by RTCA software v. 1.2.1 (ACEA Biosciences). The maximal concentrations of the extract A, fraction and compounds solvents in the RTCA experiments were 4.0% (v/v) for methanol and 0.8% (v/v) for DMSO. To obtain viability profiles and calculate IC50 values, we used the RTCA software v. 1.2.1. All the experiments were performed in duplicate, in three independent repeats.

HeLa cells [5] = experiment: RTCA (xCELLigence) cell proliferation assay, HeLa; details: for IC50: Homo sapiens, HeLa, read-out: IC50 ± SD, HeLa; for Selectivity index (SI), HeLa: SI = IC50 HaCaT/IC50 HeLa, from RTCA results
Description: as §2, §3

SKOV-3 cells [6] = experiment: RTCA (xCELLigence) cell proliferation assay, SKOV-3; details: for IC50: Homo sapiens, SK-OV-3, 24 h, read-out: IC50 ± SD, SKOV-3; for IC50 / IC50 ± SD, SKOV-3: RTCA, 24 h; for Selectivity index (SI), SKOV-3: SI = IC50 HaCaT/IC50 SKOV-3, from RTCA results
Description: as §2, §3

[7] = tested on: SKOV-3, HeLa and MOLT-4 cell lines; experiment: Cytotoxicity (MTT) on the tested cell lines, stated jointly; details: for cytotoxic activity, in words: NCI guideline: cytotoxic if IC50 under 20–30 μg/mL; for IC50: Homo sapiens, read-out: IC50, tested cell lines
Description: The viability of all the cells was determined by 3-(4,5-dimethylthiazol-2-yl)-2,5-diphenyltetrazolium bromide (MTT) assay. […] The range of concentrations was selected experimentally to obtain symmetrical sigmoidal shape of dose-response curves generated by GraFit v. 7 (Erithacus Software, West Sussex, UK). […] Following treatment, the media with the extracts, fraction and compounds were removed and replaced with fresh media with MTT (0.5 mg/mL). After 3 h of incubation, the absorption of the formazan solution was measured at 570 nm with a plate reader (Epoch, BioTek, Winooski, VT, USA). The results are expressed as IC50 mean values (±SD, standard deviation) of at least two independent experiments, in six repetitions. To determine the cytotoxic selectivity of the extracts, fraction and compounds, the selectivity index (SI) was calculated according to the formula: SI = IC50^(non-cancer cells)/IC50^(cancer cells) (Table 1).

[8] = MTT, stated jointly for the tested cell lines

## C[C@@H]1CC[C@@]2(OC1)O[C@H]1C[C@H]3[C@@H]4CC=C5C[C@@H](O)CC[C@]5(C)[C@H]4CC[C@]3(C)[C@H]1[C@@H]2C [Diosgenin]
HaCaT cells [1]; MTT
  IC50: 12.4 ± 0.5 µg/mL (≈ 29.9 µM)
HeLa cells [2]; MTT
  IC50: 16.3 ± 0.26 µg/mL (≈ 39.3 µM)
HeLa cells [2]
  Selectivity index (SI), HeLa: 0.76
SKOV-3 cells [3]; SK-OV-3, MTT, 24 h
  IC50: 19.3 ± 0.97 µg/mL (≈ 46.5 µM)
SKOV-3 cells [3]
  Selectivity index (SI), SKOV-3: 0.64
HaCaT cells [4]
  IC50: 23.4 ± 0.42 µg/mL (≈ 56.4 µM)
HeLa cells [5]; RTCA, 24 h
  IC50: 28 ± 2.4 µg/mL (≈ 67.5 µM)
HeLa cells [5]
  Selectivity index (SI), HeLa: 0.84
SKOV-3 cells [6]
  IC50: ~20 µg/mL (≈ 48.2 µM)
  IC50 ± SD, SKOV-3: 16.90 ± 2.89 µg/mL (≈ 40.8 µM)
  Selectivity index (SI), SKOV-3: 1.38
[7]; MTT
  cytotoxic activity, in words: cytotoxic; also recorded: active

## O=c1cc(-c2ccc(O)c(O)c2)oc2cc(O)c([C@@H]3O[C@H](CO)[C@@H](O)[C@H](O)[C@H]3O)c(O)c12 [Isoorientin]
HaCaT cells [1]; MTT
  IC50: > 50 µg/mL
HeLa cells [2]; MTT
  IC50: > 50 µg/mL
SKOV-3 cells [3]; SK-OV-3, MTT, 24 h
  IC50: > 50 µg/mL
[7]; [8]
  IC50: > 50 µg/mL
[7]; MTT
  cytotoxic activity, in words: inactive

## O=c1cc(-c2ccc(O)c(O)c2)oc2c([C@@H]3O[C@H](CO)[C@@H](O)[C@H](O)[C@H]3O)c(O)cc(O)c12 [Orientin]
HaCaT cells [1]
  IC50: > 50 µg/mL
HeLa cells [2]
  IC50: > 50 µg/mL
SKOV-3 cells [3]; SK-OV-3, 24 h
  IC50: > 50 µg/mL
[7]
  IC50: > 50 µg/mL
[7]; MTT
  cytotoxic activity, in words: inactive

## C[C@@H]1CC[C@@]2(OC1)O[C@H]1C[C@H]3[C@@H]4CC[C@H]5C[C@@H](O)CC[C@]5(C)[C@H]4CC[C@]3(C)[C@H]1[C@@H]2C [Tigogenin]
HaCaT cells [1]; MTT
  IC50: 31.1 ± 2.31 µg/mL (≈ 74.6 µM)
HeLa cells [2]; MTT
  IC50: 35.6 ± 3.69 µg/mL (≈ 85.4 µM)
HeLa cells [2]
  Selectivity index (SI), HeLa: 0.87
SKOV-3 cells [3]; SK-OV-3, MTT, 24 h
  IC50: > 50 µg/mL
SKOV-3 cells [3]; MTT, 24 h
  IC50 ± SD, SKOV-3: lowest activity
SKOV-3 cells [3]
  Selectivity index (SI), SKOV-3: < 0.62
HaCaT cells [4]
  IC50: 32.7 ± 0.07 µg/mL (≈ 78.5 µM)
HeLa cells [5]; RTCA, 24 h
  IC50: 25.1 ± 0.12 µg/mL (≈ 60.2 µM)
HeLa cells [5]
  Selectivity index (SI), HeLa: 1.30
SKOV-3 cells [6]
  IC50: 28.3 ± 3.46 µg/mL (≈ 67.9 µM)
  Selectivity index (SI), SKOV-3: 1.16
[7]; MTT
  cytotoxic activity, in words: active

## C[n+]1cccc(C(=O)[O-])c1 [Trigonelline]
HaCaT cells [1]; MTT
  IC50: > 50 µg/mL
HeLa cells [2]; MTT
  IC50: > 50 µg/mL
SKOV-3 cells [3]; SK-OV-3, MTT, 24 h
  IC50: > 50 µg/mL
[7]; [8]
  IC50: > 50 µg/mL

## O=c1cc(-c2ccc(O)cc2)oc2c([C@@H]3O[C@H](CO)[C@@H](O)[C@H](O)[C@H]3O)c(O)c([C@@H]3OC[C@@H](O)[C@H](O)[C@H]3O)c(O)c12 [Vicenin-1]
HaCaT cells [1]; MTT
  IC50 ± SD, HaCaT: >50 µg/mL
HeLa cells [2]; MTT
  IC50 ± SD, HeLa: >50 µg/mL
SKOV-3 cells [3]; MTT, 24 h
  IC50 ± SD, SKOV-3: >50 µg/mL
[7]; [8]
  IC50, tested cell lines: > 50 µg/mL

## O=c1cc(-c2ccc(O)cc2)oc2c([C@@H]3O[C@H](CO)[C@@H](O)[C@H](O)[C@H]3O)c(O)c([C@@H]3O[C@H](CO)[C@@H](O)[C@H](O)[C@H]3O)c(O)c12 [Vicenin-2]
HaCaT cells [1]; MTT
  IC50 ± SD, HaCaT: >50 µg/mL
HeLa cells [2]; MTT
  IC50 ± SD, HeLa: >50 µg/mL
SKOV-3 cells [3]; MTT, 24 h
  IC50 ± SD, SKOV-3: >50 µg/mL
[7]; [8]
  IC50, tested cell lines: > 50 µg/mL
[7]; MTT
  cytotoxic activity, in words: inactive

## O=c1cc(-c2ccc(O)cc2)oc2c([C@@H]3OC[C@@H](O)[C@H](O)[C@H]3O)c(O)c([C@@H]3O[C@H](CO)[C@@H](O)[C@H](O)[C@H]3O)c(O)c12 [Vicenin-3]
HaCaT cells [1]; MTT
  IC50 ± SD, HaCaT: >50 µg/mL
HeLa cells [2]; MTT
  IC50 ± SD, HeLa: >50 µg/mL
SKOV-3 cells [3]; MTT, 24 h
  IC50 ± SD, SKOV-3: >50 µg/mL
[7]; [8]
  IC50, tested cell lines: > 50 µg/mL
[7]; MTT
  cytotoxic activity, in words: inactive

## O=c1cc(-c2ccc(O)cc2)oc2c([C@@H]3O[C@H](CO)[C@@H](O)[C@H](O)[C@H]3O)c(O)cc(O)c12 [Vitexin]
HaCaT cells [1]
  IC50: > 50 µg/mL
SKOV-3 cells [3]; SK-OV-3, 24 h
  IC50: > 50 µg/mL
[7]
  IC50: > 50 µg/mL
[7]; MTT
  cytotoxic activity, in words: inactive

## C[C@H]1CC[C@@]2(OC1)O[C@H]1C[C@H]3[C@@H]4CC=C5C[C@@H](O)CC[C@]5(C)[C@H]4CC[C@]3(C)[C@H]1[C@@H]2C [Yamogenin]
HaCaT cells [1]; MTT
  IC50 ± SD, HaCaT: 9.70 ± 0.91 µg/mL (≈ 23.4 µM)
HeLa cells [2]; MTT
  IC50 ± SD, HeLa: 16.5 ± 0.59 µg/mL (≈ 39.8 µM)
HeLa cells [2]
  Selectivity index (SI), HeLa: 0.59
SKOV-3 cells [3]; MTT, 24 h
  IC50 ± SD, SKOV-3: 16.70 ± 0.08 µg/mL (≈ 40.3 µM)
SKOV-3 cells [3]
  Selectivity index (SI), SKOV-3: 0.58
HaCaT cells [4]
  IC50 ± SD, HaCaT: 16.40 ± 1.41 µg/mL (≈ 39.6 µM)
HeLa cells [5]; RTCA, 24 h
  IC50 ± SD, HeLa: 19.60 ± 1.41 µg/mL (≈ 47.3 µM)
HeLa cells [5]
  Selectivity index (SI), HeLa: 0.84
SKOV-3 cells [6]
  IC50 ± SD, SKOV-3: 23.90 ± 1.48 µg/mL (≈ 57.6 µM)
  Selectivity index (SI), SKOV-3: 0.69
SKOV-3 cells [6]; listed as yamogenin
  IC50 ± SD, SKOV-3: about 20 μg/mL
[7]; MTT
  cytotoxic activity, in words: cytotoxic; also recorded: active
